pIC50, pKd: −log10 of the molar value. Calls of active or inactive are those of the source. The rule behind the calls is not given here.
How the values were obtained:
RAW264.7 [1] = assay: Anti-inflammatory activity in LPS-induced mouse RAW264.7 cells assessed as reduction in PGE2 level preincubated with compound for 1 hrs followed by LPS stimulation and measured after 24 hrs by ELISA; type: functional, cell-based; settings: time 25.0 hrs
[2] = Acute toxicity in mouse assessed as effect on behavior at 1000 mg/kg, ip; type: organism-based; settings: in vivo
Rattus norvegicus [3] = assay: Neuroprotective activity against middle cerebral artery occlusion induced ischemia stroke Sprague-Dawley rat model assessed as neurological severity score at 10 mg/kg, ip measured after 24 hrs by behavioral test (reference value: 10.50 +/- 2.72); type: functional
Rattus norvegicus [4] = assay: Neuroprotective activity against middle cerebral artery occlusion induced ischemia stroke Sprague-Dawley rat model assessed as reduction in glycocalyx degradation by measuring decrease in serum heparan sulfate level at 5 to 20 mg/kg, ip measured after 24 hrs by ELISA; type: functional, organism-based; settings: dose 5-20 mg/kg
RAW264.7 [5] = assay: Cytotoxicity against mouse RAW264.7 cells assessed as reduction in cell viability at 5 uM incubated for 24 hrs by MTT assay; type: toxicity, cell-based; settings: raw264.7, 24 h
PC-12 [6] = assay: Protection against SNP-induced cell damage in rat PC-12 cells assessed as reduction in apoptosis by measuring normal nuclear staining at 10 uM preincubated with compound for 2 hrs followed by SNP addition and measured after 24 hrs by confocal laser microscopic analysis; type: functional, cell-based; settings: time 26.0 hrs
[7] = target: Voltage-gated inwardly rectifying potassium channel KCNH2 (Homo sapiens, UniProt Q12809); assay: Inhibition of hERG in HEK293 cells by whole-cell patch clamp electrophysiological recording; type: toxicity, cell-based
Voltage-gated inwardly rectifying potassium channel KCNH2, sequence (Q12809 whole entry): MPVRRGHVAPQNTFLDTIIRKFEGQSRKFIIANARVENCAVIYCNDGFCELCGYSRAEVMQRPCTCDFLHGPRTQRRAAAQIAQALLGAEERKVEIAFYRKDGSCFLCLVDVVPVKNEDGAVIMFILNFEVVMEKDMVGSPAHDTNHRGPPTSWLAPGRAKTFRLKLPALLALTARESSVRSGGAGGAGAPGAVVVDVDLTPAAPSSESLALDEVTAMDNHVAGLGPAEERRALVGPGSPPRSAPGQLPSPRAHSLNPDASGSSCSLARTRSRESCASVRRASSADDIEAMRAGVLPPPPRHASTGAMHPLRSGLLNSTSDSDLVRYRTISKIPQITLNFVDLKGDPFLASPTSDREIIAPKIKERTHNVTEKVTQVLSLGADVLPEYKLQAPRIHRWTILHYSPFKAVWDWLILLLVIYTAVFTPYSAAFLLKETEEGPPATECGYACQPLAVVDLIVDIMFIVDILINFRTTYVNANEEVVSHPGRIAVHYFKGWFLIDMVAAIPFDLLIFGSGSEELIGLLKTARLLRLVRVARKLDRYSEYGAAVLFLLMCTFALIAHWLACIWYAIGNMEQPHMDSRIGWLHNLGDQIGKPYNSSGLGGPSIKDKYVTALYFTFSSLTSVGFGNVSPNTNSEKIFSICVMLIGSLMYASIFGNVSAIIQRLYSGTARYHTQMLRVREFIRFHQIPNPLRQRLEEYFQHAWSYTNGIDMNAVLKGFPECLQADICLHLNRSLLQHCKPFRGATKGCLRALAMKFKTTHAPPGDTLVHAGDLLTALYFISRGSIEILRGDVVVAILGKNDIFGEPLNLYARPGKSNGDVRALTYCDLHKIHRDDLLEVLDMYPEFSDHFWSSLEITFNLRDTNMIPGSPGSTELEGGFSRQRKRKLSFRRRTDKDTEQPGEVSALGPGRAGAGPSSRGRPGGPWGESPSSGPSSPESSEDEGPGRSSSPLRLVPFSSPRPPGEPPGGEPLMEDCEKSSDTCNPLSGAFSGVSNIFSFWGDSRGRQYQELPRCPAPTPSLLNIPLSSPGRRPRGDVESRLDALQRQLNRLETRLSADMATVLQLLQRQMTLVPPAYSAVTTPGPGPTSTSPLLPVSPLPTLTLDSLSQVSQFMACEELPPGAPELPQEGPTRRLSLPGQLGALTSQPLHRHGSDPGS

RAW264.7 [8] = assay: Anti-inflammatory activity in mouse RAW264.7 cells assessed as inhibition of LPS-induced NO production preincubated with compound for 1 hrs followed by LPS stimulation and measured after 24 hrs; type: functional, cell-based; settings: time 25.0 hrs
Rattus norvegicus [9] = assay: Neuroprotective activity against middle cerebral artery occlusion induced ischemia stroke Sprague-Dawley rat model assessed as neurological severity score at 20 mg/kg, ip measured after 24 hrs by behavioral test (reference value: 10.50 +/- 2.72); type: functional
Rattus norvegicus [10] = assay: Neuroprotective activity against middle cerebral artery occlusion induced ischemia stroke Sprague-Dawley rat model assessed as reduction in glycocalyx degradation by measuring decrease in serum hyaluronic acid level administered intraperitoneally and measured after 24 hrs by ELISA; type: functional, organism-based; settings: dose 5-20 mg/kg, route ip
RAW264.7 [11] = assay: Anti-inflammatory activity in LPS-induced mouse RAW264.7 cells assessed as decrease in COX-2 expression preincubated with compound for 1 hrs followed by LPS stimulation and measured after 24 hrs by Western blot analysis; type: functional, cell-based; settings: dose 1.25-5 µM, time 25.0 hrs
Rattus norvegicus [12] = assay: Neuroprotective activity against middle cerebral artery occlusion induced ischemia stroke Sprague-Dawley rat model assessed as cerebral infarction area at 5 mg/kg, ip measured after 24 hrs by TTC staining based imaging analysis (reference value: 20.08 +/- 5.70); type: functional
[13] = target: Kelch-like ECH-associated protein 1 (Homo sapiens, UniProt Q14145); assay: Binding affinity to CM5 chip immobilized KEAP1 Kelch domain (unknown origin) assessed as dissociation equilibrium constant by SPR analysis
Kelch-like ECH-associated protein 1, sequence (Q14145 whole entry, the tested form may be a part): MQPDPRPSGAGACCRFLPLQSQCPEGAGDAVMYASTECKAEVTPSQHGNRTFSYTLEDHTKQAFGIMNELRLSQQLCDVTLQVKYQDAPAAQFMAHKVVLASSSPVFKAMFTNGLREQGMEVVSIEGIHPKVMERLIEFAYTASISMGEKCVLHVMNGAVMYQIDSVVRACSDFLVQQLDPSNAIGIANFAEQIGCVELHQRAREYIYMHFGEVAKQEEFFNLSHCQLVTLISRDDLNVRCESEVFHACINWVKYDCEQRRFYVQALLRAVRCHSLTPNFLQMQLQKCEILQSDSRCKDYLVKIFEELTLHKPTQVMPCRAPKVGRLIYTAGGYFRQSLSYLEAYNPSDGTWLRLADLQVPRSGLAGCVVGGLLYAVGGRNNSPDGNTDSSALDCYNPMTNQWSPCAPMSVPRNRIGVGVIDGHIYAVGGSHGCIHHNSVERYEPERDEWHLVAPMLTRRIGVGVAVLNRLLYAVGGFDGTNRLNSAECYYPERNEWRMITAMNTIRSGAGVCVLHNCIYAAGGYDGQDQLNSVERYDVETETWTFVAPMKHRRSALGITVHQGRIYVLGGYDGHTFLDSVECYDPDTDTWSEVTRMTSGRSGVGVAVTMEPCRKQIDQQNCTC

PC-12 [14] = assay: Neuroprotective activity against SNP-induced cell damage in rat PC-12 cells pretreated with compound for 2 hrs followed by SNP addition and measured after 24 hrs by MTT assay; type: functional, cell-based; settings: dose 2.5-100 µM, time 26.0 hrs
Rattus norvegicus [15] = assay: Neuroprotective activity against middle cerebral artery occlusion induced ischemia stroke Sprague-Dawley rat model assessed as cerebral infarction area at 20 mg/kg, ip measured after 24 hrs by TTC staining based imaging analysis (reference value: 20.08 +/- 5.70); type: functional
PC-12 [16] = assay: Protection against SNP-induced cell damage in rat PC-12 cells assessed as inhibition of ROS accumulation by measuring reduction in green fluorescence intensity at 10 uM preincubated with compound for 2 hrs followed by SNP addition and measured after 24 hrs by laser confocal microscopic analysis; type: functional, cell-based; settings: time 26.0 hrs
Rattus norvegicus [17] = assay: Neuroprotective activity against middle cerebral artery occlusion induced ischemia stroke Sprague-Dawley rat model assessed as cerebral infarction area at 10 mg/kg, ip measured after 24 hrs by TTC staining based imaging analysis (reference value: 20.08 +/- 5.70); type: functional
[18] = Acute toxicity in mouse assessed as mortality at 1000 mg/kg, ip; type: organism-based; settings: in vivo
PC-12 [19] = assay: Protection against SNP-induced cell damage in rat PC-12 cells at 10 uM pretreated with compound for 2 hrs followed by SNP addition and measured after 24 hrs by MTT assay; type: functional, cell-based; settings: time 26.0 hrs
RAW264.7 [20] = assay: Anti-inflammatory activity in LPS-induced mouse RAW264.7 cells assessed as decrease in iNOS expression preincubated with compound for 1 hrs followed by LPS stimulation and measured after 24 hrs by Western blot analysis; type: functional, cell-based; settings: dose 1.25-5 µM, time 25.0 hrs
Rattus norvegicus [21] = assay: Neuroprotective activity against middle cerebral artery occlusion induced ischemia stroke Sprague-Dawley rat model assessed as reduction in MDA level in serum at 20 mg/kg, ip measured after 24 hrs by ELISA; type: functional, organism-based
Rattus norvegicus [22] = assay: Neuroprotective activity against middle cerebral artery occlusion induced ischemia stroke Sprague-Dawley rat model assessed as neurological severity score at 5 mg/kg, ip measured after 24 hrs by behavioral test (reference value: 10.50 +/- 2.72); type: functional
Rattus norvegicus [23] = assay: Neuroprotective activity against middle cerebral artery occlusion induced ischemia stroke Sprague-Dawley rat model assessed as reduction in glycocalyx degradation by measuring decrease in serum syndecan-1 level at 5 to 20 mg/kg, ip measured after 24 hrs by ELISA; type: functional, organism-based; settings: dose 5-20 mg/kg
PC-12 [24] = assay: Protection against SNP-induced cell damage in rat PC-12 cells assessed as reduction in apoptosis by measuring decrease in cell count at 10 uM preincubated with compound for 2 hrs followed by SNP addition and measured after 24 hrs by confocal laser microscopic analysis; type: functional, cell-based; settings: time 26.0 hrs
Rattus norvegicus [25] = assay: Neuroprotective activity against middle cerebral artery occlusion induced ischemia stroke Sprague-Dawley rat model assessed as increase in SOD level in serum at 20 mg/kg, ip measured after 24 hrs by ELISA; type: functional, organism-based
Rattus norvegicus [26] = assay: Neuroprotective activity against middle cerebral artery occlusion induced ischemia stroke Sprague-Dawley rat model assessed as reduction in IL-1beta level in serum at 20 mg/kg, ip measured after 24 hrs by ELISA; type: functional, organism-based
[27] = Acute toxicity in ip dosed mouse assessed as lethal dose; type: organism-based; settings: in vivo
[28] = target: T1, Prostaglandin G/H synthase 1 (Ovis aries, UniProt P05979); assay: Inhibition of ovine COX-1 using arachidonic acid as substrate preincubated with compound for 5 mins followed by substrate addition and measured after 2 mins by enzyme immunoassay
T1 sequence (P05979 whole entry): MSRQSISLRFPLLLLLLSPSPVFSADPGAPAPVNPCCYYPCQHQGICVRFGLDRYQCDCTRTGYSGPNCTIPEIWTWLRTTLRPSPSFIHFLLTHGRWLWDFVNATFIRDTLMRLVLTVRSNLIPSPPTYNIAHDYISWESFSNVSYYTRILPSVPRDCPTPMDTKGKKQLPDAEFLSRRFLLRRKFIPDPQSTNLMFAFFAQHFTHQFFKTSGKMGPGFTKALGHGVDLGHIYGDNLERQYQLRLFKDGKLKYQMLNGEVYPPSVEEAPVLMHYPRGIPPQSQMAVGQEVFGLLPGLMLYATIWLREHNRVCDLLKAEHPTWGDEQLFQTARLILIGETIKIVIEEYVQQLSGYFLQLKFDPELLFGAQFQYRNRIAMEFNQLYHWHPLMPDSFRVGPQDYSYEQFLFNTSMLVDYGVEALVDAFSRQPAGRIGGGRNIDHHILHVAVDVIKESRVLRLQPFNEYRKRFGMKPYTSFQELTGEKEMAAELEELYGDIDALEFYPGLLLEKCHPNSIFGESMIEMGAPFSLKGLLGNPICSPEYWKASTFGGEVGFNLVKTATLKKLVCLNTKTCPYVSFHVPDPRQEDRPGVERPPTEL

PC-12 [29] = assay: Protection against SNP-induced cell damage in rat PC-12 cells assessed as reduction in apoptosis by measuring decrease in bright-blue nuclei at 10 uM preincubated with compound for 2 hrs followed by SNP addition and measured after 24 hrs by confocal laser microscopic analysis; type: functional, cell-based; settings: time 26.0 hrs
Rattus norvegicus [30] = assay: Neuroprotective activity against middle cerebral artery occlusion induced ischemia stroke Sprague-Dawley rat model assessed as reduction in serum MMP-9 level administered intraperitoneally and measured after 24 hrs by ELISA; type: functional, organism-based; settings: dose 5-20 mg/kg, route ip
Rattus norvegicus [31] = assay: Neuroprotective activity against middle cerebral artery occlusion induced ischemia stroke Sprague-Dawley rat model assessed as reduction in TNF-alpha level in serum at 20 mg/kg, ip measured after 24 hrs by ELISA; type: functional, organism-based

**Q.** For NS(=O)(=O)c1ccc(-n2nc(-c3ccc(C(F)(F)F)cc3O)nc2-c2ccccc2O)cc1, which Activity (RAW264.7 [1]) is on record?
**A.** Its Activity is “Active”.

**Q.** What about the Activity [2] of the same compound?
**A.** Its Activity is “Non-Toxic”.

**Q.** And the Activity (Rattus norvegicus [3])?
**A.** The Activity was 9.25.

**Q.** And the Activity (Rattus norvegicus [4])?
**A.** The Activity was “Active”.

**Q.** What about the Activity (RAW264.7 [5]) of the same compound?
**A.** Its Activity is “Non-Toxic”.

**Q.** And the Activity (PC-12 [6])?
**A.** Its Activity is “Active”.

**Q.** And the pIC50 [7]?
**A.** The pIC50 was less than 4.52.

**Q.** And the Activity (RAW264.7 [8])?
**A.** The Activity was “Active”.

**Q.** And the Activity (Rattus norvegicus [9])?
**A.** Its Activity is 7.4.

**Q.** And the Activity (Rattus norvegicus [10])?
**A.** Its Activity is “Dose-Dependent Effect”.

**Q.** And the Activity (RAW264.7 [11])?
**A.** Its Activity is “Dose-Dependent Effect”.

**Q.** And the Activity (Rattus norvegicus [12])?
**A.** The Activity was 18.52.

**Q.** And the pKd [13]?
**A.** Its pKd is 4.78.

**Q.** What about the Activity (PC-12 [14]) of the same compound?
**A.** Its Activity is “Dose-Dependent Effect”.

**Q.** And the Activity (Rattus norvegicus [15])?
**A.** The Activity was 15.61.

**Q.** And the Activity (PC-12 [16])?
**A.** The Activity was “Active”.

**Q.** And the Activity (Rattus norvegicus [17])?
**A.** Its Activity is 17.43.

**Q.** And the Activity [18]?
**A.** Its Activity is “Non-Toxic”.

**Q.** What about the Activity (PC-12 [19]) of the same compound?
**A.** The Activity was “Active”.

**Q.** What about the Activity (RAW264.7 [20]) of the same compound?
**A.** Its Activity is “Dose-Dependent Effect”.

**Q.** And the Activity (Rattus norvegicus [21])?
**A.** Its Activity is “Active”.

**Q.** What about the Activity (Rattus norvegicus [22]) of the same compound?
**A.** The Activity was 9.2.

**Q.** What about the Activity (Rattus norvegicus [23]) of the same compound?
**A.** The Activity was “Active”.

**Q.** What about the Activity (PC-12 [24]) of the same compound?
**A.** Its Activity is “Active”.

**Q.** What about the Activity (Rattus norvegicus [25]) of the same compound?
**A.** Its Activity is “Active”.

**Q.** What about the Activity (Rattus norvegicus [26]) of the same compound?
**A.** The Activity was “Active”.

**Q.** And the LD50 [27]?
**A.** Its LD50 is greater than 1000 mg/kg.

**Q.** What about the pIC50 [28] of the same compound?
**A.** Its pIC50 is 4.06.

**Q.** What about the Activity (PC-12 [29]) of the same compound?
**A.** The Activity was “Active”.

**Q.** What about the Activity (Rattus norvegicus [30]) of the same compound?
**A.** The Activity was “Dose-Dependent Effect”.

**Q.** What about the Activity (Rattus norvegicus [31]) of the same compound?
**A.** The Activity was “Active”.

Source: ChEMBL document CHEMBL5625239, “Synthesis of 1,3,5-triphenyl-1,2,4-triazole derivatives and their neuroprotection by anti-oxidative stress and anti-inflammation and protecting BBB” (Eur J Med Chem, 2023)
